Results on eleven compounds are retold here after patent publication US7838263B2, “Methods of identifying a plant with an Nsf1 locus” (E. I. du Pont de Nemours and Company, priority 2006, dated 2010).

Test [1] deals with transgenic soybean plants comprising the maize Nsf1 gene. Put plainly: T1 transgenic soybean plant herbicide efficacy testing. The conditions noted are these: sprayed at V3 stage; for tolerance of one of the two T1 events compared to the controls: first event, 8 DAT and 15 DAT; for tolerance of the second T1 event compared to the controls: 15 DAT. Format: in vivo, Glycine max. The protocol:
Two events from the T0 generation were advanced to the T1 generation for additional herbicide efficacy testing of the Nsf1 gene. Replicates of two controls, as well as T1 plants, were grown in greenhouse experiments and sprayed with mesotrione at one of two rates (200 g/ha or 50 g/ha), nicosulfuron (70 g/ha), or rimsulfuron (35 g/ha) at the V3 growth stage. All herbicide treatments were applied with 1% w/w modified seed oil adjuvant in a spray volume of 374 L/ha. Plants were rated for herbicide response at eight days after application using a 1 to 9 score as used in the T0 testing.
An expanded herbicide efficacy test was developed in a second T1 plant experiment for the same two events advanced from the T0 generation. […] All herbicide treatments were applied in a spray volume of 287 L/ha. Isoxaflutole (140 g/ha), topramezone (140 g/ha), and sulcotrione (140 g/ha) were applied with 1% w/w modified seed oil adjuvant. Diuron treatments (560 g/ha) were applied with 1% w/w petroleum crop oil adjuvant. Acifluorfen (4480 g/ha), sulfentrazone (140 g/ha), flumioxazine (140 g/ha), and dicamba (280 g/ha) were applied with 0.25% w/w nonionic surfactant. Rimsulfuron (35 g/ha) treatments were applied with 0.5% w/w basic blend adjuvant. At eight and fifteen days after treatment, plants were rated visually for crop injury using a 0 to 100 scale (0=no injury to 100=dead plant).

Test [2] relates to T0 soybean plants transformed with the Nsf1 gene. In words: T0 transgenic soybean plant herbicide response, visual score 1 to 9. Format: in vivo, Glycine max. The source says:
Two different constructs comprising the Nsf1 gene were created to examine herbicide efficacy of the gene when transformed into soybean. The Nsf1 constructs were co-bombarded with a 35S:HYG insert to permit event selection using hygromycin. At the V2 to V6 growth stage, a total of 127 T0 plants were sprayed with 35 g/ha rimsulfuron. All rimsulfuron treatments were applied with 0.2% w/w nonionic surfactant in a spray volume of 287 L/ha. In addition to the T0 plants, replications of three different controls were included—two positive and one negative. Individual plants were evaluated for herbicide response at ten days after treatment, and assigned a visual response score from 1 to 9 (1=dead plant to 9=no effect observed). Based upon high tolerance scores to the initial rimsulfuron spray, five T0 events were sprayed with an additional 35 g/ha rimsulfuron. Plants were rated for visual tolerance using a 1 to 9 score at ten days after the second application.

For test [3], the system named is corn lines. Put plainly: Testing of maize plants for sensitivity to nicosulfuron. Format: in vivo, Zea mays. The conditions noted are these: misted with 2.3 mM nicosulfuron, 0.5% v/v Kinetic surfactant, approximately V3 stage. The protocol:
In order to determine if the Nsf1 allele was consistent across maize lines, three corn lines with unknown sensitivity levels to nicosulfuron were tested to determine their reaction and then evaluate their sequences. Plants were misted with a 2.3 mM nicosulfuron, 0.5% v/v Kinetic surfactant solution at approximately the V3 stage. Both known resistant and sensitive lines were also grown and sprayed as controls. […] Three corn lines with unknown sensitivity levels to nicosulfuron were tested to determine their reaction. Plants were misted with a 2.3 mM nicosulfuron, 0.5% v/v Kinetic surfactant solution at approximately the V3 stage. Both known resistant and sensitive lines were also grown and sprayed as controls.

In the case of `CS(=O)(=O)c1cc(C(F)(F)F)ccc1C(=O)c1cnoc1C1CC1` [isoxaflutole], in test [1], the “tolerance of one of the two T1 events compared to the controls” value (shortened to “tolerance of one … compared to the controls”) is listed as “significantly better tolerance” and the “tolerance of the second T1 event compared to the controls” value is “significantly better tolerance”.

For the compound `C#CCN1C(=O)COc2cc(F)c(N3C(=O)C4=C(CCCC4)C3=O)cc21` [flumioxazine], in test [1], the “tolerance of one … compared to the controls” value is on record as “significantly better tolerance”.

On to `Cc1nn(-c2cc(NS(C)(=O)=O)c(Cl)cc2Cl)c(=O)n1C(F)F` [sulfentrazone], for which, in test [1], the “tolerance of one … compared to the controls” value is given as “significantly better tolerance” and the “tolerance of the second T1 event compared to the controls” value was “significantly better tolerance”.

In the case of `CS(=O)(=O)c1ccc(C(=O)C2C(=O)CCCC2=O)c([N+](=O)[O-])c1` [mesotrione], in test [1], the “tolerance of one … compared to the controls” value is listed as “significantly better tolerance” and the “tolerance of the second T1 event compared to the controls” value is given as “significantly better tolerance”.

For `CCS(=O)(=O)c1cccnc1S(=O)(=O)NC(=O)Nc1nc(OC)cc(OC)n1` [rimsulfuron], the “T0 events with improved level of tolerance after an additional application” value in test [2] (after an additional application of 35 g/ha rimsulfuron) is “Three of 51”. The “T0 events with improved tolerance compared to the controls” value in test [2] (ten days after treatment with 35 g/ha rimsulfuron, V2 to V6 stage) is on record as 4 of 51. Besides, in test [1], the “tolerance of one … compared to the controls” value was “significantly better tolerance” and the “tolerance of the second T1 event compared to the controls” value is “significantly better tolerance”.

Regarding `O=C(O)c1cc(Oc2ccc(C(F)(F)F)cc2Cl)ccc1[N+](=O)[O-]` [acifluorfen], in test [1], the “tolerance of one … compared to the controls” value is “significantly better tolerance” and the “tolerance of the second T1 event compared to the controls” value was “significantly better tolerance”.

With `COc1c(Cl)ccc(Cl)c1C(=O)O` [dicamba], in test [1], the “tolerance of one … compared to the controls” value is reported as “significantly better tolerance” and the “tolerance of the second T1 event compared to the controls” value is “significantly better tolerance”.

Regarding `CS(=O)(=O)c1ccc(C(=O)C2C(=O)CCCC2=O)c(Cl)c1` [sulcotrione], in test [1], the “tolerance of one … compared to the controls” value is on record as “significantly better tolerance” and the “tolerance of the second T1 event compared to the controls” value is “significantly better tolerance”.

For the compound `CN(C)C(=O)Nc1ccc(Cl)c(Cl)c1` [diuron], in test [1], the “tolerance of one … compared to the controls” value is given as “significantly better tolerance”.

On to `COc1cc(OC)nc(NC(=O)NS(=O)(=O)c2ncccc2C(=O)N(C)C)n1` [nicosulfuron], for which the “reaction of line A188 to nicosulfuron” value in test [3] (line A188) is listed as “sensitive”. In addition, the “reaction of line Black Mexican Sweet (BMS) to nicosulfuron” value in test [3] (line BMS) is listed as “resistant”. Besides, the “reaction of line Q66 to nicosulfuron” value in test [3] (line Q66) was “resistant”.

With `Cc1c(C(=O)c2cnn(C)c2O)ccc(S(C)(=O)=O)c1C1=NOCC1` [topramezone], in test [1], the “tolerance of one … compared to the controls” value is recorded as “significantly better tolerance” and the “tolerance of the second T1 event compared to the controls” value is “significantly better tolerance”.
